PMC10452847 (Cancers, 2023)

Columns and labels:
[1] = system: RMS559 xenograft; design: method as in PMID 36097178; details: RMS559 xenograft models; twice daily dosing, nude mice; cited from earlier work
[2] = system: phosphorylation of FGFR4 and ERK1/2 in RMS559; assay: Western blot of RMS559 treated with futibatinib; type: cell-based, human; details: increasing concentrations, 6 h
Description: Cells were collected with a cell scraper, then pelleted by centrifugation, washed with ice-cold PBS, and lysed in RIPA buffer with 1% HALT Protease and Phosphatase inhibitors. Lysates were sonicated to shear genomic DNA and clarified by centrifugation at 18,000× g for 20 min. The protein concentration of the resulting supernatant was determined by BCA assay. 20 μg of protein was run on NuPage 4–12% BisTris gels (Invitrogen, Carlsbad, CA, USA) and transferred to PVDF membranes (Invitrogen). Membranes were blocked in 5% nonfat dried milk in TBST for 1 h at room temperature and incubated with primary antibody overnight at 4 °C. HRP-conjugated anti-rabbit secondary antibody was used to probe the primary antibody. Protein was visualized using Amersham ECL Western Blotting Detection Reagent (Amersham, UK). The following antibodies were used: pFGFR4 (ab192589, Abcam, Cambridge, UK), FGFR4 (8562, Cell Signaling Technology (CST), Danvers, MA, USA), pERK1/2 (4370, CST), ERK1/2 (4695, CST), and GAPDH (8884, CST). Relative band intensity was quantified in Image Lab software (Version 5.2.1, Bio-Rad, Philadelphia, PA, USA)

[3] = two-drug combination tolerability study; type: in vivo, mice; details: futibatinib oral M-F three weeks, irinotecan iv Monday for three weeks, vincristine iv once
Description: Figure A4 Two-drug combination tolerability study. (A) Schematic of tolerability study. […] Irinotecan was given via tail vein injection at two dosages (75 mg/kg and 50 mg/kg) on Monday for three weeks. (B) Relative body weights of mice treated with the futibatinib-vincristine or futibatinib-irinotecan combinations.

[4] = system: RH4 xenograft; assay: two-drug combination xenograft efficacy study; type: in vivo, NSG mice; details: futibatinib 15 mg/kg, irinotecan 25 mg/kg, vincristine 0.4 mg/kg, vehicle 39
[5] = system: SCMC xenograft; assay: two-drug combination xenograft efficacy study; type: in vivo, NSG mice; details: for Days (survival, inset of Figure 4): SCMC xenograft, futibatinib 15 mg/kg, irinotecan 50 mg/kg decreased to 25 mg/kg, vincristine 0.4 mg/kg, vehicle 30
[6] = system: RMS559 xenograft; assay: triple combination xenograft efficacy study; type: in vivo, NSG mice; details: for median survival: futibatinib 10 mg/kg oral M-F 3 weeks, irinotecan 6 mg/kg iv once, vincristine 0.4 mg/kg iv once, vehicle 11
[7] = system: advanced solid tumors with FGFR aberrations; details: 197 patients with advanced solid tumors with FGFR aberrations; cited from earlier work
[8] = in vivo; details: NOD SCID Gamma (NSG), mouse, plasma, po, 25 mg/kg, 25 mg/kg oral gavage, single dose, SCMC tumor-bearing mice
[9] = system: RMS559 xenograft; assay: two-drug combination xenograft efficacy study; details: for median survival: futibatinib 15 mg/kg, irinotecan 25 mg/kg, vincristine 0.4 mg/kg, vehicle 23
[10] = system: RMS559 xenograft; assay: futibatinib single agent xenograft efficacy study; details: 5-25 mg/kg daily (SID) oral gavage, three weeks, vs vehicle
[11] = system: RH4 xenograft; assay: futibatinib single agent xenograft efficacy study; details: 5-25 mg/kg daily (SID) oral gavage, three weeks, vs vehicle
[12] = system: SCMC xenograft; assay: futibatinib single agent xenograft efficacy study; details: 5-25 mg/kg daily (SID) oral gavage, three weeks, vs vehicle
[13] = system: mutant FGFR4-driven RMS tumor; design: method as in PMID 24124571; details: cited from earlier work

SMILES	maximum tolerated dosages for the drug combinations [3] [mg/kg]	Days (survival, inset of Figure 4) [4] [days]	Days (survival, inset of Figure 4) [5] [days]	median survival [6] [days]	median survival [9] [days]	other results
COCCNc1cc(NC(=O)N2CCCc3cc(CN4CCN(C)CC4=O)c(C=O)nc32)ncc1C#N [FGF401]	–	–	–	–	–	effect on tumor progression [1]: effective at delaying tumor progression
C=CC(=O)N1CC[C@H](n2nc(C#Cc3cc(OC)cc(OC)c3)c3c(N)ncnc32)C1 [futibatinib]	15	36	33	15	23	phosphorylation of FGFR4 and ERK1/2 (western blot) [2]: inhibited phosphorylation of FGFR4 and a downstream target ERK1/2 in a dose-dependent manner; average tumor volume ([6]; day 11 of treatment, futibatinib 10 mg/kg oral M-F, vehicle 1532): 1072 mm^3; objective response rate (ORR) [7]: 13.7%; half-life [8]: ~4 h; effect in delaying tumor growth or prolonging survival [10]: no significant effect; effect in delaying tumor growth or prolonging survival [11]: no significant effect; effect in delaying tumor growth or prolonging survival [12]: no significant effect
CCc1c2c(nc3ccc(OC(=O)N4CCC(N5CCCCC5)CC4)cc13)-c1cc3c(c(=O)n1C2)COC(=O)[C@]3(O)CC [irinotecan]	50	51.5	48	15	29	toxicity of dose ([5]; irinotecan 50 mg/kg iv on Monday, SCMC xenograft study): toxic
Cc1ccc(C(=O)Nc2ccc(CN3CCN(C)CC3)c(C(F)(F)F)c2)cc1C#Cc1cnc2cccnn12 [ponatinib]	–	–	–	–	–	effect on tumor growth in mice [13]: inhibit mutant FGFR4-driven RMS tumor growth
CC[C@]1(O)C[C@H]2CN(CCc3c([nH]c4ccccc34)[C@@](C(=O)OC)(c3cc4c(cc3OC)N(C=O)[C@H]3[C@@](O)(C(=O)OC)[C@H](OC(C)=O)[C@]5(CC)C=CCN6CC[C@]43[C@@H]65)C2)C1 [vincristine]	0.4	41	37	15	23	average tumor volume ([9]; day 18 of treatment, futibatinib 15 mg/kg oral M-F 3 weeks, irinotecan 25 mg/kg iv Monday 3 weeks, vincristine 0.4 mg/kg iv once): 1016 mm^3
